The values that follow come from US8729273B2, “Compounds effective as xanthine oxidase inhibitors, method for preparing the same, and pharmaceutical composition containing the same” (LG Life Sciences Ltd., priority 2009, dated 2014).

pIC50: −log10 of the molar value.

Sequence of Xanthine oxidase originated from bovine milk (P80457 whole entry): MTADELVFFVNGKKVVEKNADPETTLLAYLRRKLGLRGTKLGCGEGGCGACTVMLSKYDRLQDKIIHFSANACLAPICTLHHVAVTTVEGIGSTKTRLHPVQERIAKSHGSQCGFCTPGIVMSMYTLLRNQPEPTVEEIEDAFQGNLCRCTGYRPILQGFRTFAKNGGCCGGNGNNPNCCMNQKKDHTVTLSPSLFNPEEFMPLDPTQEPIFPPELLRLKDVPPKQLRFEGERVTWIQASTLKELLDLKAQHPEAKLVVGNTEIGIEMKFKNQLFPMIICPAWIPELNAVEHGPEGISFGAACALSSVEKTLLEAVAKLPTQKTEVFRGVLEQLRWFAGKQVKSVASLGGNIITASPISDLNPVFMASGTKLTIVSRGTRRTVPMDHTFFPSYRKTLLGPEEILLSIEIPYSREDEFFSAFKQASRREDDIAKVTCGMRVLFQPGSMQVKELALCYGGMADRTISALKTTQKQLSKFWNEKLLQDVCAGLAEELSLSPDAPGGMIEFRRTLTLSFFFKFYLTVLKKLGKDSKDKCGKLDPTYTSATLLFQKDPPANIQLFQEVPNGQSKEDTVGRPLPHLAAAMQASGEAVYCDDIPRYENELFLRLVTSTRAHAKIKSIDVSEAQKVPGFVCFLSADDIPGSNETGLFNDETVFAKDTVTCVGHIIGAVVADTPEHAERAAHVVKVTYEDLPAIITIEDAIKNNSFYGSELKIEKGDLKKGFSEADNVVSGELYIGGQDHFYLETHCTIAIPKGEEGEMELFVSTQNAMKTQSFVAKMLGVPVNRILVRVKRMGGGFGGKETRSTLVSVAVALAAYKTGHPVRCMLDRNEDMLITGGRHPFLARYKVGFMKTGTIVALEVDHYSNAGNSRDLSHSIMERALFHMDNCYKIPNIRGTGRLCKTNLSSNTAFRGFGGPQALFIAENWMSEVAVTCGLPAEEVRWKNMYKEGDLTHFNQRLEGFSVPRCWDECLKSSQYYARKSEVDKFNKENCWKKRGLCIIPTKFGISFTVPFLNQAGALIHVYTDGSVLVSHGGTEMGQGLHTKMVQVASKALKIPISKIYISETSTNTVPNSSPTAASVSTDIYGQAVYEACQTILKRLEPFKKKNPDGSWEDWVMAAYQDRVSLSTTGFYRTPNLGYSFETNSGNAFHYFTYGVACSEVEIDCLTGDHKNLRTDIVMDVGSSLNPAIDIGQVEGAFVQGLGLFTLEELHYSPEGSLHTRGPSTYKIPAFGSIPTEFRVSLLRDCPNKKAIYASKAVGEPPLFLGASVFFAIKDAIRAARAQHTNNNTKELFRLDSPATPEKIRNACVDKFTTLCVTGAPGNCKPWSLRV

One assay deals with Xanthine oxidase originated from bovine milk (Bos taurus (Bovine), UniProt P80457). The assay is described as follows: Xanthine oxidase inhibition activity (initial velocity of uric acid formation). Format: biochemical. The settings on record: 3 min incubation with test compound, substrate xanthine. How it is done:
Xanthine oxidase originated from bovine milk was incubated for 3 min with test compounds, and the initial velocity of uric acid formation was determined by adding the substrate xanthine. The initial velocity of test compound at each concentration was converted to % inhibition rate on the basis of the initial velocity under the absence of the inhibitor, thereby the inhibitor concentration needed for 50% inhibition was calculated as IC50 values. According to the present invention, compounds which show IC50 values against xanthine oxidase from bovine milk in the level of nM were developed.
For the molecule `CC(C)n1cc(C#N)c2cc(-n3cc(C(=O)O)cn3)ccc21` [Example 1, 1-(3-cyano-1-isopropyl-indol-5-yl)pyrazole-4-carboxylic acid], the negative logarithm of the IC50 (pIC50) (commonly the negative decadic logarithm of the IC50, by convention in mol/L) was 8.47.

Molecule `N#Cc1cn(CC2CC2)c2ccc(-n3cc(C(=O)O)cn3)cc12` [Example 2, 1-[3-cyano-1-(cyclopropylmethyl)indol-5-yl]pyrazole-4-carboxylic acid] had a pIC50 of 8.55.

In turn, `N#Cc1cn(C2CC2)c2ccc(-n3cc(C(=O)O)cn3)cc12` [Example 3, 1-[3-cyano-1-cyclopropyl-indol-5-yl]pyrazole-4-carboxylic acid] had a pIC50 of 8.22.

For the molecule `CC(C)Cn1cc(C#N)c2cc(-n3cc(C(=O)O)cn3)ccc21` [Example 4, 1-(3-cyano-1-isobutyl-indol-5-yl)pyrazole-4-carboxylic acid], the pIC50 is 8.35.

On to `CC(C)(C)Cn1cc(C#N)c2cc(-n3cc(C(=O)O)cn3)ccc21` [Example 5, 1-[3-cyano-1-(2,2-dimethylpropyl)indol-5-yl]pyrazole-4-carboxylic acid], for which the negative-log IC50 (pIC50) was 8.30.

In the case of `COCCn1cc(C#N)c2cc(-n3cc(C(=O)O)cn3)ccc21` [Example 6, 1-[3-cyano-1-(2-methoxyethyl)indol-5-yl]pyrazole-4-carboxylic acid], the pIC50 was 8.42.

For `CCC(C)n1cc(C#N)c2cc(-n3cc(C(=O)O)cn3)ccc21` (centres unmarked) [Example 7, 1-(3-cyano-1-sec-butyl-indol-5-yl)-pyrazole-4-carboxylic acid], the pIC50 was 8.17.

Consider `N#Cc1cn(C2CCC2)c2ccc(-n3cc(C(=O)O)cn3)cc12` [Example 8, 1-[3-cyano-1-cyclobutyl-indol-5-yl]pyrazole-4-carboxylic acid], for which the pIC50 is 8.16.

Take `N#Cc1cn(C2CCCC2)c2ccc(-n3cc(C(=O)O)cn3)cc12` [Example 9, 1-(3-cyano-1-cyclopentyl-indol-5-yl)-pyrazole-4-carboxylic acid]: the pIC50 is 8.34.

`CC(CF)n1cc(C#N)c2cc(-n3cc(C(=O)O)cn3)ccc21` (centres unmarked) [Example 10, 1-[3-cyano-1-(1-fluoropropan-2-yl)-indol-5-yl]-pyrazole-4-carboxylic acid] gave a pIC50 of 8.28.

`N#Cc1cn(C2CCOC2)c2ccc(-n3cc(C(=O)O)cn3)cc12` (centres unmarked) [Example 11, 1-[3-cyano-1-(tetrahydrofuran-3-yl)-indol-5-yl]-pyrazole-4-carboxylic acid] gave a pIC50 of 8.27.

`Cc1nn(-c2ccc3c(c2)c(C#N)cn3C(C)C)cc1C(=O)O` [Example 12, 1-[3-cyano-1-isopropyl-indol-5-yl]-3-methyl-pyrazole-4-carboxylic acid] showed a pIC50 of 7.94.

Consider `Cc1nn(-c2ccc3c(c2)c(C#N)cn3CC2CC2)cc1C(=O)O` [Example 13, 1-[3-cyano-1-(cyclopropylmethyl)indol-5-yl]-3-methyl-pyrazole-4-carboxylic acid], for which the pIC50 is 8.32.

In turn, `COCCn1cc(C#N)c2cc(-n3cc(C(=O)O)c(C)n3)ccc21` [Example 14, 1-[3-cyano-1-(2-methoxyethyl)indol-5-yl]-3-methyl-pyrazole-4-carboxylic acid] had a pIC50 of 7.92.

As to `CC(C)n1cc(C#N)c2cc(-n3cc(C(=O)O)c(C(F)(F)F)n3)ccc21` [Example 15, 1-[3-cyano-1-isopropyl-indol-5-yl]-3-(trifluoromethyl)pyrazole-4-carboxylic acid], the pIC50 is 4.53.

On to `N#Cc1cn(CC2CC2)c2ccc(-n3cc(C(=O)O)c(C(F)(F)F)n3)cc12` [Example 16, 1-[3-cyano-1-(cyclopropylmethyl)indol-5-yl]-3-(trifluoromethyl)pyrazole-4-carboxylic acid], for which the pIC50 was 4.67.

`CC(C)n1cc([N+](=O)[O-])c2cc(-n3cc(C(=O)O)cn3)ccc21` [Example 17, 1-(1-isopropyl-3-nitro-indol-5-yl)pyrazole-4-carboxylic acid] gave a pIC50 of 8.34.

For `CC(C)n1cc(C#N)c2cc(-n3cnc(C(=O)O)n3)ccc21` [Example 18, 1-(3-cyano-1-isopropyl-indol-5-yl)-1,2,4-triazole-3-carboxylic acid], the pIC50 is 7.89.

As to `CC(C)n1cc(C#N)c2cc(-n3cnc(C(=O)O)c3)ccc21` [Example 19, 1-(3-cyano-1-isopropyl-indol-5-yl)imidazole-4-carboxylic acid], the negative-log IC50 (pIC50) was 7.62.

`CC(C)n1cc(C#N)c2cc(-c3ccc(C(=O)O)s3)ccc21` [Example 20, 5-(3-cyano-1-isopropyl-indol-5-yl)-thiophene-2-carboxylic acid] gave a pIC50 of 8.33.

The molecule `CC(C)n1cc(C#N)c2cc(-c3cc(C(=O)O)ccn3)ccc21` [Example 21, 2-(3-cyano-1-isopropyl-indol-5-yl)isonicotinic acid] had a pIC50 of 8.21.

`N#Cc1cn(CC2CC2)c2ccc(-c3cc(C(=O)O)ccn3)cc12` [Example 22, 2-[3-cyano-1-(cyclopropylmethyl)-indol-5-yl]isonicotinic acid] showed a negative logarithm of the IC50 (pIC50) of 8.68.

Molecule `N#Cc1cn(C2CCOC2)c2ccc(-c3cc(C(=O)O)ccn3)cc12` (centres unmarked) [Example 23, 2-[3-cyano-1-(tetrahydrofuran-3-yl)-indol-5-yl]isonicotinic acid] gave a pIC50 of 8.00.

`CC(CF)n1cc(C#N)c2cc(-c3cc(C(=O)O)ccn3)ccc21` (centres unmarked) [Example 24, 2-[3-cyano-1-(1-fluoropropan-2-yl)-indol-5-yl]isonicotinic acid] gave a pIC50 of 8.21.

For `COCCn1cc(C#N)c2cc(-c3cc(C(=O)O)ccn3)ccc21` [Example 25, 2-[3-cyano-1-(2-methoxyethyl)-indol-5-yl]isonicotinic acid], the pIC50 was 8.07.

Consider `Cc1cc(C(=O)O)cc(-c2ccc3c(c2)c(C#N)cn3C(C)C)n1` [Example 26, 2-(3-cyano-1-isopropyl-indol-5-yl)-6-methylisonicotinic acid], for which the pIC50 is 5.40.

Turning to `CC(C)n1cc([N+](=O)[O-])c2cc(-c3cc(C(=O)O)ccn3)ccc21` [Example 27, 2-(1-isopropyl-3-nitro-indol-5-yl) isonicotinic acid], the pIC50 is 7.96.

As for `N#Cc1cc(-n2cc(C(=O)O)cn2)cc2cc(-c3ccccc3)[nH]c12` [Example 28, 1-(7-cyano-2-phenyl-1H-indol-5-yl)-pyrazole-4-carboxylic acid], the pIC50 was 7.62.

`CC(C)c1cc2cc(-n3cc(C(=O)O)cn3)cc(C#N)c2[nH]1` [Example 29, 1-(7-cyano-2-isopropyl-1H-indol-5-yl)-pyrazole-4-carboxylic acid] showed a negative-log IC50 (pIC50) of 8.30.

`COCc1cc2cc(-n3cc(C(=O)O)cn3)cc(C#N)c2[nH]1` [Example 30, 1-(7-cyano-2-methoxymethyl-1H-indol-5-yl)-pyrazole-4-carboxylic acid] showed a pIC50 of 7.77.

The molecule `N#Cc1cc(-n2cc(C(=O)O)cn2)cc2cc[nH]c12` [Example 31, 1-(7-cyano-1H-indol-5-yl)-pyrazole-4-carboxylic acid] showed a pIC50 of 7.40.

Another assay deals with plasma uric acid. The assay is described as follows: In vivo xanthine oxidase assay: plasma uric acid-lowering activity in oxonic acid-induced high-uric acid model. On the set-up: species or system rat. The settings on record: male SD rats, potassium oxonate 300 mg/kg i.p., compound 10 mg/kg oral, plasma at 1 h after oral administration; normal group = 100% inhibition, control group = 0%. How it is done: Uric Acid-Lowering Activity in Plasma and Liver (Oxonic Acid-Induced High-Uric Acid Model in Rat)
In order to estimate the plasma uric acid-lowering ability of the compounds according to the present invention, experiments were carried out using oxonic acid-induced high-uric acid model.
300 mg/kg of potassium oxonate suspended in 0.8% carboxymethylcellulose solution was intraperitoneally administered to male SD rats of body weight 200 g (control group, compound administration group). 1 h after the oxonic acid administration, 10 mg/kg of test compounds dissolved in polyethyleneglycol 400:ethanol (2:1) solution were orally administered (compound administration group), and after the time period of 1 h blood was sampled. Plasma was separated from thus-obtained blood, and the uric acid concentration in the plasma was quantified utilizing LC-MS/MS. FIGS. 1 and 2 represent the results of plasma uric acid concentration and inhibition rate of plasma uric acid, respectively.
Through the present experiment, excellent plasma uric acid-lowering activity of the compounds according to the present invention was verified.
In the case of `CC(C)n1cc(C#N)c2cc(-n3cc(C(=O)O)cn3)ccc21` [Example 1, 1-(3-cyano-1-isopropyl-indol-5-yl)pyrazole-4-carboxylic acid], the “uric acid inhibition rate” value came out at 60%.
